Data taken from US10189824B2, “Pyrimidine-diamine dual HSP90/TRAP1 inhibitors” (CalAsia Pharmaceuticals, Inc., priority 2014, dated 2019).
pEC50, pIC50: −log10 of the molar value.

Tests used:
Format in all cases: cell-based
[1] = tested on: U251MG cells; experiment: Cell viability assay, ATP quantitation (ADP-Glo); settings: Homo sapiens, U-251; 72 h at 37° C.; FIG. 1B
Experimental: U251MG cells were maintained at 37° C. and 5% CO2 in RPMI media supplemented with glutamax and containing 10% heat-inactivated fetal bovine serum and 1% penicillin/streptomycin (Life Sciences).
A cell counting kit (CCK-8 assay kit, Dojindo) and an ADP-Glo assay (Life Technologies) were used to quantitate the effects of test compounds on cell viability. U251MG cells were seeded into 96 well tissue culture plates and incubated for 16 h at 37° C. with 5% CO2. Increasing concentrations of test compounds were added to the wells from DMSO-containing stock solutions to a final DMSO concentration of 0.05% and incubated for 72 hr at 37° C. CCK-8 kit reagent or ADP-GLO reagent were then added to the wells and absorbance was measured at 450 nm (for the CCK assay) using a Synergy HT micro-titer plate reader (Biotek) or luminescence was measured (for the ADP-GLO assay) using a POLARstar Omega micro-titer plate reader (BMG).

[2] = tested on: Akt1 levels in U251MG cells; experiment: Biomarker quantitation by ELISA, Akt1
Experimental: U251 cells were plated in 6 well format culture dishes overnight at 37° C. with 5% CO2 and then treated with increasing concentrations of test compounds for 48 h at 37° C. with 5% CO2. Quantification of total Akt1, EGFR, and Hsp70 in cell lysates was accomplished using ELISA kits (R&D Systems) according to the manufacturer's recommendations and utilizing a Synergy HT micro-titer plate reader (Biotek). Cell lysates were prepared as recommended in the kit procedure. Protein concentrations of lysates clarified using centrifugation were determined using a Bradford assay (Thermo Scientific), and the values were used to normalize the biomarker values.

[3] = tested on: mitochondria isolated from U251MG cells; experiment: TMRE assay, TMRE-loaded isolated mitochondria; settings: 30° C.
Experimental: For cell-based assays, cells were treated with various concentrations of the test compounds for 48 hours at 37° C., with 5% CO2. TMRE (200 nM) was then added to wells for 30 min and monitored for changes in fluorescence activity either by fluorescence microscopy using an inverted Zeiss LSM 710 confocal microscope or by spectrophotometry using a fluorescence plate reader (544ex/590em) after washing the cells. Specific TMRE fluorescence was calculated by comparison to matched wells pretreated with 20 uM FCCP for 10 min prior to addition of TMRE. For mitochondria assays, untreated U251MG cells grown to confluence in T75 culture flasks. Mitochondria from these cells were isolated using a mitochondria isolation kit (Thermo Scientific) and loaded with 0.1 mM TMRE in kit buffer at 37° C. for 20 min. After washing, the TMRE-loaded mitochondria (2 ug per well) were incubated in a 96 well black plate with test compounds and monitored kinetically at 30° C. for changes in fluorescence using a fluorescence plate reader (ex 544/em 590). The fluorescence intensity after treatment with 20 um FCCP in control wells corresponded to a fully depolarized state.

[4] = tested on: GBM39; experiment: Cellular efficacy in Mayo Clinic GBM PDX cell line GBM39
Experimental: (§1) Short-term explant cultures from PDX models were seeded into 96-well Perfecta3D hanging drop plates to form a single spheroid in each well after 2 days. The spheroids were transferred to a round bottom 96 well plate by centrifugation and then incubated with graded concentrations of test compound (8 spheroids per compound concentration). Spheroid volumes were monitored every 6 hours over the course of 5 days using the IncuCyte system (Essen BioScience, MI, US) to provide a growth curve akin to a tumor regrowth assay.

[5] = tested on: GBM43; experiment: Cellular efficacy in Mayo Clinic GBM PDX cell line GBM43
Experimental: as §1

[6] = tested on: Hsp90 client proteins (Akt1, ERK1) in MDA-MB-231 cell line; experiment: Cellular biomarker assays (Akt1, ERK1 ELISA) in MDA-MB-231; settings: 48 hours
Experimental: Cellular biomarker assays: Cells were cultured in culture medium (RPMI-glutamax, 10% FCS, 100 units/ml penicillin, and 100 μg/ml streptomycin). Cells were passaged after lifting using 0.25% trypsin/EDTA, and 3×10^5 cells were seeded in each well of six well plates (total volume 2.5 mL/well). After the cells were cultured for 24 hours, increasing concentrations of Hsp90 inhibitor were added to wells in triplicate from DMSO-containing stock solutions and mixed by gently by stirring. Final DMSO concentration in all wells was 0.25%. The treated cells were then cultured for 48 hours prior to lysate preparation. The culture media was removed from wells, and the wells were washed twice with DPBS containing 1 mM CaCl2 and 0.5 mM MgCl2. […] The protein concentration in the cell lysates was determined using the BCA protein assay kit used according to the manufacturer's recommendations. […] Protein concentrations were determined using a micro-titer plate reader (Model # Synergy HT; BioTek Inc., Winooski, Vt.).
Akt1 and ERK1 levels in the cell lysates were measured using kits from R&D Systems used according to the manufacturer's recommendations. […] Akt1 and ERK1 levels were determined using a micro-titer plate reader (Model # Synergy HT; BioTek Inc., Winooski, Vt.) (FIGS. 5 and 8).

| pEC50 [4] | pEC50 [5] | Compound | pIC50 [1] | Reduction of Akt1 levels ([2]; 15.6 uM, 48 h) [%] | pIC50 ([2]; Homo sapiens, U-251, 48 h, read-out: Akt1 level reduction IC50) | Membrane potential of isolated mitochondria reduced to ([3]; 4 uM) [%] | Membrane potential of isolated mitochondria reduced to ([3]; 20 uM) [%] | Effect on Akt1 and ERK1 levels, MDA-MB-231 [6] |
| --- | --- | --- | --- | --- | --- | --- | --- | --- |
| – | – | COc1c(C)cnc(CN(CCc2ccccn2)c2cc(Cl)nc(N)n2)c1C [Compound 1, 6-chloro-4-N-[(4-methoxy-3,5-dimethylpyridin-2yl)methyl]-4-N-[2-(pyridine-2-yl)ethyl]pyrimidine-2,4-amine] | 5.60 | 79 | 5.62 | 61 | 52 | – |
| 6.66 | 6.55 | COc1c(C)cnc(CN(CC2(c3ccc(F)cc3)CCOCC2)c2cc(Cl)nc(N)n2)c1C [Compound A, 6-chloro-4-N-{[4-(4-fluorophenyl)oxan-4-yl]methyl}-4-N-[(4-methoxy-3,5-dimethylpyridin-2-yl)methyl]pyrimidine-2,4-diamine] | – | – | – | – | – | suppression of Hsp90 client proteins |
